Assay results from the supplement of paper PMC7695840.
Structures can show the parent of a compound that is named as a salt.

How the values were obtained:
[1] = test system: Staphylococcus aureus MW2 delta-mecA (mecA-); test: IC50 (growth, competition assay); settings: cefoxitin: subinhibitory
Summary of the method: (§1)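 Per plate, DsRed (540/590) and GFP (485/520) readings were normalized between the medians of the single-strain controls, after which No Treatment was fixed at 0.5. These readings came from a 1:1 mix of pre-induced fluorescent S. aureus MW2 strains with and without the resistance gene, grown for 20 h at 37 °C and 90% humidity, unshaken, in LB with a daily-set subinhibitory drug dose in 1536-well plates. Per-strain IC50 meant the dose halving the No Treatment signal, or the maximal signal.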

[2] = test system: Staphylococcus aureus MW2 (mecA+); test: IC50 (growth, competition assay); settings: cefoxitin: subinhibitory
Summary of the method: as §1

Compound	IC50 ([1]; fluorescent label: DsRed) [µM]	IC50 ([1]; fluorescent label: GFP) [µM]	IC50 ([2]; fluorescent label: DsRed) [µM]	IC50 ([2]; fluorescent label: GFP) [µM]
CCCCC[C@H](CC(=O)NO)C(=O)N[C@H](C(=O)N1CCC[C@H]1CO)C(C)C [Actinonin]	< 9.85	< 9.85	15.6	11
NC(N)=NC(=O)c1nc(Cl)c(N2CCCCCC2)nc1N [5-(N,N-hexamethylene)amiloride]	46.2	60.9	90.9	108
COC(=O)c1c(OC)cc2c(c1C)Oc1c(Cl)c(O)c(Cl)c(C)c1C(=O)O2 [GANGALEOIDIN]	38.3	< 9.85	< 9.85	62.4
CC(=O)[C@H]1CC[C@H]2[C@@H]3CC=C4C[C@@H](OC(=O)CCC(=O)O)CC[C@]4(C)[C@H]3CC[C@]12C [FORMULA-405]	18.1	17.7	18.1	35
CC[C@H]1OC(=O)[C@H](C)[C@@H](O[C@H]2C[C@@](C)(OC)[C@@H](O)[C@H](C)O2)[C@H](C)[C@@H](O[C@@H]2O[C@H](C)C[C@H](N(C)C)[C@H]2O)[C@](C)(O)C[C@@H](C)[C@@H]2N[C@@H](COCCOC)O[C@H]([C@H]2C)[C@]1(C)O [DYNABAC]	< 9.85	< 9.85	21.4	21.3
OCCN1CCN(CC/C=C2/c3ccccc3Sc3ccc(C(F)(F)F)cc32)CC1 [cis-(Z)-Flupenthixol dihydrochloride]	12.9	< 9.85	34.6	42.6
CC(C)(C)C#Cc1cc(N(C(=O)[C@H]2CC[C@H](C)CC2)[C@H]2CC[C@H](O)CC2)c(C(=O)O)s1 [VX-222]	16.8	17.4	25.7	53.7
CC(C)[C@H]1c2ccc(F)cc2CC[C@@]1(CCN(C)CCCc1nc2ccccc2[nH]1)OC(=O)C1CC1 [NNC 55-0396]	< 9.85	< 9.85	14.8	14.9
COC(=O)/C(C)=C\C[C@@]12OC(C)(C)[C@@H]3C[C@@H](C=C4C(=O)c5c(O)c6c(c(CC=C(C)C)c5O[C@]431)O[C@](C)(CCC=C(C)C)C=C6)C2=O [METHYL GAMBOGATE]	12.8	22.9	56.8	66.4
CCC[C@H](NC(=O)/C(C#N)=C/c1cccc(Br)n1)c1ccccc1 [WP1130]	2.28	0.904	13.7	27.5
C=C1c2cccc(O)c2C(=O)C2=C(O)[C@]3(O)C(=O)C(C(N)=O)=C(O)[C@@H](N(C)C)[C@@H]3[C@@H](O)[C@H]12 [Methacycline hydrochloride (Physiomycine)]	< 0.498	< 0.498	0.702	0.644
CCOc1nc2cccc(C(=O)OCc3oc(=O)oc3C)c2n1Cc1ccc(-c2ccccc2-c2noc(=O)[nH]2)cc1 [EDARBI]	12.8	< 9.85	18.7	58.9
C[CH2][Hg][S]c1ccccc1C(=O)[O-].[Na+] [MERTHIOLATE]	< 9.85	< 9.85	< 9.85	< 9.85
N#Cc1cc([N+](=O)[O-])c2sc(C(N)=O)[n+]([O-])c2c1 [BTO-1]	< 9.85	< 9.85	19.5	18.9
O=C1C(Cl)=C(Cl)C(=O)C(Cl)=C1Cl [CHLORANIL]	16	17.3	67.1	83.8
Oc1ccc(/C=C/c2ccc(/C=C/c3ccc(O)cc3)c(Br)c2)cc1 [K114]	< 9.85	< 9.85	< 9.85	< 9.85
C[C@@H]1CCO[C@H]2Cn3cc(C(=O)NCc4ccc(F)cc4F)c(=O)c(O)c3C(=O)N12	109	59	> 150	> 150
O=c1[nH]cc(F)c(=O)[nH]1 [Adrucil (Fluorouracil)]	< 0.498	< 0.498	1.76	1.78
CCN1CCN(C(=O)N[C@@H](C(=O)N[C@@H]2C(=O)N3C(C(=O)O)=C(CSc4nnnn4C)CS[C@H]23)c2ccc(O)cc2)C(=O)C1=O [CEFOBID]	< 9.85	< 9.85	19.5	24.5
Cc1ccc(S(=O)(=O)C=CC#N)cc1 [Bay 11-7082]	< 9.85	< 9.85	< 9.85	< 9.85
O=C(O)c1ccc2cc(-c3ccc(O)c(C45CC6CC(CC(C6)C4)C5)c3)ccc2c1 [CD 437]	< 9.85	< 9.85	< 9.85	< 9.85
CCn1cc(C(=O)O)c(=O)c2cc3c(cc21)OCO3 [UTIBID]	15.2	< 9.85	15.5	15
O=C(O)c1cn(C2CC2)c2cc(N3CCNCC3)c(F)cc2c1=O [CIPRO]	< 9.85	< 9.85	< 9.85	< 9.85
CCC[C@@H]1C[C@@H](C(=O)N[C@@H]([C@H]2O[C@H](SC)[C@H](O)[C@@H](O)[C@H]2O)[C@@H](C)O)N(C)C1 [LINCOCIN]	< 9.85	< 9.85	< 9.85	< 9.85
Oc1cc2c(cc1O)CN(C(=S)NCCc1ccc(Cl)cc1)CCC2 [Capsazepine]	34.5	36.1	59.4	111
CC(=O)Oc1cc2c(c(C)c1OC(C)=O)CC=C1[C@@]2(C)CC[C@@]2(C)C3C[C@](C)(C(=O)O)CC[C@]3(C)CC[C@]12C (stereo partly drawn) [DIHYDROCELASTRYL DIACETATE]	< 9.85	< 9.85	< 9.85	< 9.85
O=C1C=C2C(=CCOC2O)O1 (stereo not drawn) [PATULIN]	< 9.85	< 9.85	18.9	26.9
